Source: the NIST ThermoML archive (doi:10.1021/je800266e)
± gives the expanded uncertainty stated by the source.

Legend:
[1] = molar heat capacity at constant pressure; details: 101.33 kPa, Small (less than 1 g) adiabatic calorimetry
[2] = for Triple point temperature: Adiabatic calorimetry; for Normal melting temperature: DTA
[3] = Molar enthalpy of transition or fusion

CCC(=O)[c-]1cccc1.[Fe+2].c1cc[cH-]c1 [propanoylferrocene]
Details | Molar enthalpy of transition or fusion [kcal/mol] | molar heat capacity at constant pressure [J/K/mol]
[1], 10 K, Crystal | – | 4.607 ± 0.097
[1], 15 K, Crystal | – | 11.25 ± 0.18
[1], 20 K, Crystal | – | 18.61 ± 0.25
[1], 25 K, Crystal | – | 26.27 ± 0.28
[1], 30 K, Crystal | – | 34.16 ± 0.27
[1], 35 K, Crystal | – | 42.07 ± 0.31
[1], 40 K, Crystal | – | 49.63 ± 0.35
[1], 45 K, Crystal | – | 56.35 ± 0.38
[1], 50 K, Crystal | – | 61.76 ± 0.41
[1], 55 K, Crystal | – | 66.08 ± 0.43
[1], 60 K, Crystal | – | 70.11 ± 0.45
[1], 65 K, Crystal | – | 74.36 ± 0.47
[1], 70 K, Crystal | – | 79.11 ± 0.5
[1], 75 K, Crystal | – | 84.35 ± 0.52
[1], 80 K, Crystal | – | 89.8 ± 0.55
[1], 90 K, Crystal | – | 99.79 ± 0.6
[1], 100 K, Crystal | – | 108.7 ± 0.6
[1], 110 K, Crystal | – | 116.7 ± 0.7
[1], 120 K, Crystal | – | 124.2 ± 0.7
[1], 130 K, Crystal | – | 131.6 ± 0.7
[1], 140 K, Crystal | – | 138.9 ± 0.8
[1], 150 K, Crystal | – | 146.4 ± 0.8
[1], 160 K, Crystal | – | 154 ± 0.8
[1], 170 K, Crystal | – | 161.9 ± 0.8
[1], 180 K, Crystal | – | 170 ± 0.9
[1], 190 K, Crystal | – | 178.3 ± 0.9
[1], 200 K, Crystal | – | 186.8 ± 0.9
[1], 210 K, Crystal | – | 195.4 ± 1
[1], 220 K, Crystal | – | 204.1 ± 1
[1], 230 K, Crystal | – | 212.9 ± 1.1
[1], 240 K, Crystal | – | 221.9 ± 1.1
[1], 250 K, Crystal | – | 231 ± 1.1
[1], 260 K, Crystal | – | 240.3 ± 1.2
[1], 270 K, Crystal | – | 250.1 ± 1.2
[1], 280 K, Crystal | – | 260.5 ± 1.2
[1], 290 K, Crystal | – | 271.7 ± 1.3
[1], 298.15 K, Crystal | – | 280.7 ± 1.3
[1], 300 K, Crystal | – | 282.7 ± 1.3
[1], 310 K, Crystal | – | 293.8 ± 1.4
[1], 311.13 K, Crystal | – | 295 ± 1.4
[1], 311.13 K, Liquid | – | 347.6 ± 1.6
[1], 320 K, Liquid | – | 353.3 ± 1.6
[1], 330 K, Liquid | – | 359.7 ± 1.6
[1], 340 K, Liquid | – | 365.7 ± 1.7
[1], 350 K, Liquid | – | 372.9 ± 1.7
[1], 360 K, Liquid | – | 378.5 ± 1.7
[1], 370 K, Liquid | – | 381.9 ± 1.7
[3], Crystal, Adiabatic calorimetry | 3.04 ± 0.0813 | –
[3], Crystal, DSC | 3.51 ± 0.239 | –

[2], Crystal
Details | Normal melting temperature [°C] | Triple point temperature [K]
– | 5.1 ± 2 | 276.83 ± 1

CCC[c-]1cccc1.[Fe+2].c1cc[cH-]c1 [propylferrocene]
[1]
Details | molar heat capacity at constant pressure [J/K/mol]
5 K, Crystal 2 | 0.5339 ± 0.032
10 K, Crystal 2 | 3.806 ± 0.084
15 K, Crystal 2 | 11.48 ± 0.18
20 K, Crystal 2 | 20.55 ± 0.27
25 K, Crystal 2 | 29.5 ± 0.32
30 K, Crystal 2 | 37.6 ± 0.29
35 K, Crystal 2 | 44.82 ± 0.33
40 K, Crystal 2 | 51.46 ± 0.36
45 K, Crystal 2 | 57.41 ± 0.39
50 K, Crystal 2 | 62.94 ± 0.42
55 K, Crystal 2 | 68.11 ± 0.44
60 K, Crystal 2 | 72.96 ± 0.47
65 K, Crystal 2 | 77.55 ± 0.49
70 K, Crystal 2 | 81.91 ± 0.51
75 K, Crystal 2 | 86.11 ± 0.53
80 K, Crystal 2 | 89.89 ± 0.55
90 K, Crystal 2 | 98.25 ± 0.59
100 K, Crystal 2 | 106.2 ± 0.6
110 K, Crystal 2 | 114.1 ± 0.7
120 K, Crystal 2 | 122 ± 0.7
130 K, Crystal 2 | 130.2 ± 0.7
140 K, Crystal 2 | 139.3 ± 0.8
150 K, Crystal 2 | 149.6 ± 0.8
160 K, Crystal 2 | 161.7 ± 0.8
170 K, Crystal 2 | 173.8 ± 0.9
180 K, Crystal 2 | 185.9 ± 0.9
186.7 K, Crystal 1 | 191.3 ± 1
186.7 K, Crystal 2 | 194 ± 1
190 K, Crystal 1 | 193.3 ± 1
200 K, Crystal 1 | 199.5 ± 1
210 K, Crystal 1 | 205.6 ± 1
220 K, Crystal 1 | 212.1 ± 1
230 K, Crystal 1 | 220.2 ± 1.1
240 K, Crystal 1 | 230.2 ± 1.1
250 K, Crystal 1 | 244.6 ± 1.2
260 K, Crystal 1 | 274.7 ± 1.3
270 K, Crystal 1 | 324 ± 1.5
276.03 K, Crystal 1 | 286.8 ± 1.4
276.03 K, Liquid | 305.9 ± 1.4
280 K, Liquid | 308.4 ± 1.4
290 K, Liquid | 314.9 ± 1.5
298.15 K, Liquid | 319.5 ± 1.5
300 K, Liquid | 320.5 ± 1.5
310 K, Liquid | 325.8 ± 1.5
320 K, Liquid | 331.8 ± 1.5
330 K, Liquid | 338.2 ± 1.6
340 K, Liquid | 344.4 ± 1.6
350 K, Liquid | 350.7 ± 1.6
360 K, Liquid | 356.6 ± 1.6
370 K, Liquid | 361.5 ± 1.6

Details | Molar enthalpy of transition or fusion, Crystal 1, Adiabatic calorimetry [kcal/mol] | Molar enthalpy of transition or fusion, Crystal 1, DSC [kcal/mol] | Molar enthalpy of transition or fusion, Crystal 2, Adiabatic calorimetry [kcal/mol] | Normal melting temperature, Crystal 1 [°C] | Triple point temperature, Crystal 1 [K] | Triple point temperature, Crystal 2 [K]
[2] | – | – | – | 38.47 ± 2 | 311.62 ± 1 | 186.7 ± 0.6
[3] | 4.58 ± 0.0574 | 4.71 ± 0.239 | 0.294 ± 0.00956 | – | – | –
